Measurements published in patent publication US12397010B2, “Treatment of chronic headaches” (Saint Louis University, priority 2019, dated 2025).

Test system: trigeminal neurons that innervate the dural vasculature
Experiment: in vivo electrophysiological recordings from single unit dural-responsive trigeminal neurons (preclinical model of migraine)
Settings: rat; for normal cutaneous facial noxious and innocuous somatosensory responses: same neurons, extracranial somatosensory processing; for ongoing neuronal firing of central trigeminal neurons / response to pain-producing stimulation of the dura mater of central trigeminal neurons: intravenous administration, P<0.05 vs. baseline; for ongoing neuronal firing of central trigeminal neurons: FIGS. 1A & 1E; for response to pain-producing stimulation of the dura mater of central trigeminal neurons: FIGS. 1B & 1F
Excerpt: FIGS. 1A-1H depict a preclinical model of migraine manipulates the pain responsive sensory neurons that innervate the dura mater and its associated blood vessels. The cell bodies of these sensory neurons reside in the trigeminal ganglia. Measuring dural-responsive trigeminal neuronal responses in animals has proven to be extremely predictive of therapeutic efficacy for abortive migraine treatments, such as triptans, and it also translates to migraine preventives. Here we show in vivo electrophysiological recordings in a rat from single unit trigeminal neurons that innervate the dural vasculature. […] Intravenous administration of the migraine abortive, naratriptan (FIGS. 1A-1D) and the migraine preventive, amitriptyline (FIGS. 1E-1H), inhibited ongoing neuronal firing (FIGS. 1A & 1E) and the response to pain-producing stimulation of the dura mater (FIGS. 1B & 1F) of central trigeminal neurons. […] In the same neurons, naratriptan and MRS5980 had no effect on normal cutaneous facial noxious and innocuous somatosensory responses. Amitriptyline, however did affect this normal somatosensory processing. * P<0.05 vs. baseline.

Compound | inhibiting neuronal responses (compared with naratriptan and amitriptyline) (dural-responsive trigeminal neurons) | normal cutaneous facial noxious and innocuous somatosensory responses | ongoing neuronal firing of central trigeminal neurons | response to pain-producing stimulation of the dura mater of central trigeminal neurons
CNC(=O)[C@@]12C[C@@H]1[C@@H](n1cnc3c(NC)nc(C#Cc4ccc(Cl)s4)nc31)[C@H](O)[C@@H]2O [MRS5980] | equally efficacious | no effect | – | –
CN(C)CCC=C1c2ccccc2CCc2ccccc21 [amitriptyline] | – | did affect | inhibited | inhibited
CNS(=O)(=O)CCc1ccc2[nH]cc(C3CCN(C)CC3)c2c1 [naratriptan] | – | no effect | inhibited | inhibited
